Measured values from US5189169A (priority 1991, dated 1993).
Where “and” joins values, the source holds several entries; their conditions need not be identical. Equal values may be shown once.

Tests used:
[1] = tested on: four grassy weeds: wild oat, watergrass, green foxtail and crabgrass; assay: Pre-emergence herbicidal activity, grassy weeds (Table III); assay type: in vivo; conditions: 2.24 kg/ha, 2-3 weeks after treatment
Procedure: (§1) The herbicidal effect was observed by comparing the extent of weed control in test flats treated with the compounds against that occurring in similar non-treated control flats. All were applied at 3.57 lb/A (4 kg/ha) to pre-emergence and post-emergence screening flats. An 80 gal/A (748.3 1/ha) spray volume was utilized. Post-emergence flats were seeded 12 days prior to treatment. Pre-emergence flats were seeded one day prior to treatment. Overhead watering of pre-emergence flats and soil surface watering of post-emergence flats, so as to avoid wetting the foliage, were carried out for the duration of the test.
(§2) Weed seeds were planted in a flat at a seed depth of 0.5 inch (1.3 cm). Soil for flats was prepared using loam soil fortified with 17-17-17 fertilizer (N-P2 O5 -K2 O on a weight basis) and Captan 80W fungicide. The test weeds were as follows:
(§3) The spray solutions were prepared by dissolving 240 mg of test compound in 20 ml of acetone containing 1% polyoxyethylene sorbitan monolaurate emulsifier, then adding 20 ml of water to the resulting solution. The spray solutions were applied using a linear spray table. Pre-emergence flats are raised to the level of the post-emergence foliage canopy by setting the flats on a wooden block.
(§4) The degree of weed control was visually assessed and recorded as percentage control compared to the growth of the same species in an untreated check flat of the same age. The rating scale ranges from 0 to 100%, where 0 equals no effect with plant growth equal to the untreated control, and 100 equals complete kill.
(§5) Compounds 68 to 145 in Table I were tested generally similarly to Compounds No. 1 to 67 with the following differences: The rate of application was 2 lb/acre (2.24 kg/ha), no 6-day evaluations were made, and the weeds were:
(§6) Four grassy weeds: wild oat, watergrass, green foxtail and crabgrass (Digitaria sanguinalis);
(§7) Ratings were taken 2-3 weeks after treatment.

[2] = tested on: three broadleaf weeds: wild mustard, redroot pigweed and curly dock; assay: Pre-emergence herbicidal activity, broadleaf weeds (Table III); assay type: in vivo, Brassica kaber, Amaranthus retroflexus, Rumex crispus; conditions: 2.24 kg/ha, 2-3 weeks after treatment
Procedure: as §1, §2, §3, §4, §5
(§8) Three broadleaf weeds: wild mustard, redroot pigweed (Amaranthus retroflexus) and curly dock (Rumex crispus).
as §7

[3] = tested on: four grassy weeds: wild oat, watergrass, green foxtail and crabgrass; assay: Post-emergence herbicidal activity, grassy weeds (Table III); assay type: in vivo; conditions: 2.24 kg/ha, 2-3 weeks after treatment
Procedure: as §1, §2, §3, §4, §5, §6, §7

[4] = tested on: three broadleaf weeds: wild mustard, redroot pigweed and curly dock; assay: Post-emergence herbicidal activity, broadleaf weeds (Table III); assay type: in vivo, Brassica kaber, Amaranthus retroflexus, Rumex crispus; conditions: 2.24 kg/ha, 2-3 weeks after treatment
Procedure: as §1, §2, §3, §4, §5, §8, §7

[5] = tested on: three grassy weeds (wild oat, watergrass, foxtail); parameters: species or system Avena fatua, Echinochloa crusgalli, Setaria viridis; conditions: in vivo
[6] = tested on: three broadleaf weeds (morning glory, mustard, velvetleaf); parameters: species or system Ipomoea purpurea, Brassica kaber, Abutilon theophrasti; conditions: in vivo
yellow nutsedge [7] = tested on: yellow nutsedge; parameters: species or system Cyperus esculentus; conditions: in vivo
[8] = tested on: three grassy weeds (wild oat, watergrass, foxtail); parameters: species or system Avena fatua, Echinochloa crusgalli, Setaria viridis; conditions: in vivo; remark: listed apart in the source
yellow nutsedge [9] = tested on: yellow nutsedge; parameters: species or system Cyperus esculentus; conditions: in vivo; remark: listed apart in the source

| Structure (SMILES) | % Control, Pre-Emergence, GR Avg. [1] | % Control, Pre-Emergence, BL Avg. [2] | % Control, Post-Emergence, GR Avg. [3] | % Control, Post-Emergence, BL Avg. [4] | % Control, Pre-emergence, GR avg. [5] | % Control, Pre-emergence, BL avg. [6] | % Control, Pre-emergence, NS (yellow nutsedge [7]) | % Control, Post-emergence, GR avg. [8] | % Control, Post-emergence, NS (yellow nutsedge [9]) |
| --- | --- | --- | --- | --- | --- | --- | --- | --- | --- |
| CCCCCSP(=O)(N(CCCC)CCCC)N(CCCC)CCCC [Compound 132] | 8% | 20% | 40% | 67% |  |  |  |  |  |
| CCCCCSP(=O)(N(CCC)CCC)N(CCC)CCC [Compound 131] | 0% | 23% | 58% | 93% |  |  |  |  |  |
| CCCCN(CCCC)P(=O)(SC(C)CC)N(CC)CC (stereo not drawn) [Compound 102] | 30% | 40% | 70% | 99% |  |  |  |  |  |
| CCCCN(CCCC)P(=O)(SCCC)N(C)C (stereo not drawn) [Compound 108] | 15% | 13% | 76% | 98% |  |  |  |  |  |
| CCCCN(CC)P(=O)(SCC)N(CCC)CCC (stereo not drawn) [Compound 88] | 0% | 0% | 89% | 96% |  |  |  |  |  |
| CCCCN(CCCC)P(=O)(SC(C)CC)N(C)C (stereo not drawn) [Compound 111] | 10% | 10% | 72% | 99% |  |  |  |  |  |
| CCCCN(CCCC)P(=O)(SC(C)CC)N(CCC)CCC (stereo not drawn) [Compound 127] | 0% | 0% | 59% | 99% |  |  |  |  |  |
| CCCSP(=O)(N(CCC)CCC)N(C)c1ccccc1 (stereo not drawn) [Compound 27] |  |  |  |  | 0% | 0% | 0% | 20% and 40% | 0% and 5% |
| CCCSP(=O)(N(CCC)CCC)N(C)c1cc(OC)cc(OC)c1 (stereo not drawn) [Compound 43] |  |  |  |  | 0% | 0% | 0% | 10% | 0% |
| C=CCN(CC=C)P(=O)(SCCCC)N(CCC)CCC (stereo not drawn) [Compound 77] | 0% | 0% | 53% | 99% |  |  |  |  |  |
| CCCCSP(=O)(N(CC)CC)N(CCCC)CCCC (stereo not drawn) [Compound 86] | 5% | 7% | 77% | 99% |  |  |  |  |  |
| CCCCCSP(=O)(N(CCC)CCC)N(CCCC)CCCC (stereo not drawn) [Compound 130] | 0% | 16% | 59% | 97% |  |  |  |  |  |
| CCCCN(CCCC)P(=O)(SCCC)N(CCC)CCC (stereo not drawn) [Compound 124] | 0% | 0% | 67% | 79% |  |  |  |  |  |
| CCCCSP(=O)(N(CCC)CCC)N(CCCC)CCCC (stereo not drawn) [Compound 126] | 0% | 0% | 61% | 86% |  |  |  |  |  |
| CCCCN(CCCC)P(=O)(SC1CCCCC1)N(C)C (stereo not drawn) [Compound 117] | 0% | 0% | 50% | 77% |  |  |  |  |  |
| CCCN(CCC)P(=O)(SCC)N(CCC)CCC [Compound 70] | 5% | 10% | 82% | 99% |  |  |  |  |  |
